Measured values taken from US9133240B2, “Compounds binding to the bacterial beta ring” (Centre National de la Recherche Scientifique, priority 2011, dated 2015).
Values joined by “and” are separate entries in the source; they are usually repeats but may differ in a detail not shown here. Identical values can stand only once. Square brackets hold non-standard residues; d marks the D form. Ends that are not written are not given here. Peptide text beside a SMILES is read from it. Phe(3,4-Cl2) = N[C@@H](Cc1ccc(Cl)c(Cl)c1)C(=O)O; Phe(4-Br) = N[C@@H](Cc1ccc(Br)cc1)C(=O)O; Phe(4-Cl) = N[C@@H](Cc1ccc(Cl)cc1)C(=O)O; Phe(4-Me) = Cc1ccc(C[C@H](N)C(=O)O)cc1; hCha = N[C@@H](CCC1CCCCC1)C(=O)O; tBuAla = CC(C)(C)C[C@H](N)C(=O)O; Cha = N[C@@H](CC1CCCCC1)C(=O)O; hLeu = CC(C)CC[C@H](N)C(=O)O

What was measured:
[1] = molecular target: T1, E. coli β clamp (Escherichia coli, UniProt P0A988); assay: SPR competition assay: inhibition of P1-β interaction by challenging peptides; assay type: binding; settings: for Ki (10^6 M^−1): Ki = (1 + KA[β])/IC50; for ΔG: ΔG = −RT ln Ki;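 as to all read-outs here: SPR responses corrected for background, then fitted with a 1:1 Langmuir binding model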
T1 construct: made in house; host or cells: E. coli BL21 (β); P1 by solid-phase synthesis
T1 sequence (P0A988 whole entry): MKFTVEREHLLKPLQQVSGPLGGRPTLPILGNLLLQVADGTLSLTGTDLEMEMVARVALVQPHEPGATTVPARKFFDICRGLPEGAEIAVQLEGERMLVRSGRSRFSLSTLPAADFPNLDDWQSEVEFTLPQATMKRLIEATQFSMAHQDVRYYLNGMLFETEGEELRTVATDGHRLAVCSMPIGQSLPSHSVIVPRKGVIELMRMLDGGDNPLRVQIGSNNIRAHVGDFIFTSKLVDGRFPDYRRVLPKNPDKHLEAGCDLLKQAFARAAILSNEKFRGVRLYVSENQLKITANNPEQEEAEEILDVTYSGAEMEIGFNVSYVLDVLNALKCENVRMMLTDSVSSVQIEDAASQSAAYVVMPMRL
Experimental: SPR experiments were performed on a Biacore® 3000. […] After subtraction of the background response, the data were fit to the 1:1 Langmuir model using BIAevaluation (Biacore™). […] IC50 values for each challenging peptide were determined by plotting the concentration of peptide against the percentage of binding inhibition. The IC50 value of each peptide was used to calculate Ki (Ki=(1+KA[β])/IC50) which measures the affinity of the challenging peptide for β in the competition assay, and AG was derived from Ki (ΔG=RT ln Ki).

[2] = molecular target: T2, β ring (Escherichia coli, UniProt P0A988); assay: Isothermal titration calorimetry (ITC) of peptides into β ring solution; assay type: binding, E. coli; settings: for ΔS (cal/mol/deg) / N: number of binding sites per β monomer / Kd / ΔG: ITC; for ΔΔG (Kcal/mol) = ΔGj − ΔGi, reference i = P7: compared to P7; for ΔΔG (Kcal/mol) = ΔGj − ΔGi, reference i = P11: compared to P11; for ΔΔG (Kcal/mol) = ΔGj − ΔGi, reference i = P13: compared to P13; for ΔG: ΔG = ΔH-TΔS
T2 construct: made in house; host or cells: E. coli BL21
Experimental: ITC was performed by using a ITC200 microcalorimeter from MicroCal. Peptides (400 μM) were titrated in sequential injections (2 μl each) into a β ring solution (300 μl, 20 or 30 μM) at 25° C. Data were corrected from control experiments where peptides were injected in buffer solution (Hepes 10 mM pH 7.4, NaCl 0.15M, EDTA 3 mM, P20 0.005%). Data analysis was performed with Origin 7.0 software.
Target sequence in this assay (P0A988 whole entry): as above

[3] = molecular target: T2, β ring; assay: IC50 SPR (μM)
Excerpt: Table printed on a drawing sheet, Figure 4
Head of the field: IC50 SPR (μM)
The patent's description of the figure: FIG. 4: Polymerase competition assay. […] Grey: biochemical assay, black: SPR assay. P15 sequence is Ac-RQLVLF, (SEQ ID No: 15), Scr: scrambled peptide: Ac-ChaFQLD, (SEQ ID No: 33).
First copying reader's note: The biochemical assay row is printed with decimal commas and the SPR row with decimal points.
Where the first naming reader finds the target: passage: the relative affinity of two compounds for the β ring is not dependent from the technique used for measuring said affinities (FIG. 4B)
Target sequence in this assay (P0A988 whole entry, looked up): as the sequence (P0A988 whole entry) above

[4] = IC50 (μM), SPR, inhibition of binding of β ring (0.25 μM) to immobilized P1
[5] = peptide 400 μM, β 20 or 30 μM, 25° C
[6] = Kd (nM), peptide 400 μM, β 20 or 30 μM, 25° C

Molecule | IC50 [1, 4] [µM] | Ki (10^6 M^−1) ([1]; SPR) | ΔG ([1]; SPR) [kcal/mol] | N: number of binding sites per β monomer [2, 5] | other results
H-RQLVLGL-OH [Peptide P1, H-Arg-Gln-Leu-Val-Leu-Gly-Leu-OH, reference compound] | 8.85 | 0.15 10^6 M^−1 | -7.06 | 1.33 and 1.31 | fold less efficient binding to the ring compared to the whole polymerase PolIV ([1]; SPR): 30 fold; ΔS (cal/mol/deg) ([2]; 25° C): 12.8 cal/mol/deg and 7.6 cal/mol/deg; Kd ([2]; affinity (ITC)): 1000 to 2000 nM
H-RQLVLL-OH [Peptide P2, H-Arg-Gln-Leu-Val-Leu-Leu-OH] | 21.5 | 0.0063 10^6 M^−1 | -6.54 | – | –
CC(=O)N[C@@H](CCC(N)=O)C(=O)N[C@@H](CC1CCCCC1)C(=O)N[C@@H](CC(=O)O)C(=O)N[C@@H](CCC(C)C)C(=O)N[C@@H](Cc1ccccc1)C(=O)O [Peptide P16, Ac Q Cha D hLeu F] (Ac-Q[Cha]D[hLeu]F-OH; C-terminus assumed) | 0.23 | – | – | – | –
CC(=O)N[C@@H](CCC(N)=O)C(=O)N[C@@H](CC1CCCCC1)C(=O)N[C@@H](CC(=O)O)C(=O)N[C@@H](CC(C)C)C(=O)N[C@@H](Cc1ccc(Cl)c(Cl)c1)C(=O)O [Peptide P14, Ac-Gln-Cha-Asp-Leu-(3,4-di-Cl)Phe-OH] (Ac-Q[Cha]DL[Phe(3,4-Cl2)]-OH) | 0.077 | 17 10^6 M^−1 | -9.85 | 0.91 and 0.90 | fold increase compared to the full PolIV enzyme [1]: 4 fold; IC50 ([1]; IC50 SPR (nM), SPR): 0.07 µM; fold increase in interaction/affinity compared to P6 ([1]; SPR): 15 fold; fold increase compared to P1 ([1]; SPR IC50): 115 fold; Kd [2, 6]: ~60 nM; ΔΔG (Kcal/mol) = ΔGj − ΔGi, reference i = P7 ([2]; from ITC data): -0.8 kcal/mol; ΔΔG (Kcal/mol) = ΔGj − ΔGi, reference i = P11 ([2]; from ITC data): -1.05 kcal/mol; ΔΔG (Kcal/mol) = ΔGj − ΔGi, reference i = P12 ([2]; from ITC data, compared to P12): -0.2 kcal/mol; ΔΔG (Kcal/mol) = ΔGj − ΔGi, reference i = P13 ([2]; from ITC data): -0.52 kcal/mol
CC(=O)N[C@@H](CCC(N)=O)C(=O)N[C@@H](CC1CCCCC1)C(=O)N[C@@H](CC(=O)O)C(=O)N[C@@H](CC(C)(C)C)C(=O)N[C@@H](Cc1ccccc1)C(=O)O [Peptide P19, Ac Q ChaD NptGly F] (Ac-Q[Cha]D[tBuAla]F-OH; C-terminus assumed) | 5.63 | – | – | – | –
CC(=O)N[C@@H](CCC(N)=O)C(=O)N[C@@H](CC1CCCCC1)C(=O)N[C@@H](CC(=O)O)C(=O)N[C@@H](CCC1CCCCC1)C(=O)N[C@@H](Cc1ccccc1)C(=O)O [Peptide P18, Ac Q Cha D hCha F] (Ac-Q[Cha]D[hCha]F-OH; C-terminus assumed) | 0.72 | – | – | – | –
CC(=O)N[C@@H](CCC(N)=O)C(=O)N[C@@H](CC1CCCCC1)C(=O)N[C@@H](CC(=O)O)C(=O)N[C@@H](CC(C)C)C(=O)N[C@@H](Cc1ccc(C)cc1)C(=O)O [Peptide P11, Ac-Gln-Cha-Asp-Leu-pMePhe-OH] (Ac-Q[Cha]DL[Phe(4-Me)]-OH) | 0.26 | 8.43 10^6 M^−1 | -9.44 | 0.95 | ΔG ([2]; 25° C): -8.6 kcal/mol; ΔΔG (Kcal/mol) = ΔGj − ΔGi, reference i = P7 ([2]; from ITC data): +0.25 Kcal/mol
CC(=O)N[C@@H](CCC(N)=O)C(=O)N[C@@H](CC1CCCCC1)C(=O)N[C@@H](CC(=O)O)C(=O)N[C@@H](CC1CCCCC1)C(=O)N[C@@H](Cc1ccccc1)C(=O)O [Peptide P17, Ac Q Cha D Cha F] (Ac-Q[Cha]D[Cha]F-OH; C-terminus assumed) | 0.31 | – | – | – | –
CC(=O)N[C@@H](CCC(N)=O)C(=O)N[C@@H](CC1CCCCC1)C(=O)N[C@@H](CC(=O)O)C(=O)N[C@@H](CC(C)C)C(=O)N[C@@H](Cc1ccccc1)C(=O)O [Peptide P7, Ac-Gln-Cha-Asp-Leu-Phe-OH] (Ac-Q[Cha]DLF-OH) | 0.17 | 8.01 10^6 M^−1 | -9.42 | 0.74 and 0.76 | Ki [1]: 170 nM; fold decrease in affinity compared to P14 ([1]; SPR): 2 fold; fold increase in interaction/affinity compared to P6 ([1]; SPR): 6 fold; ΔG ([2]; 25° C): -8.9 kcal/mol; ΔΔG (Kcal/mol) = ΔGj − ΔGi, reference i = P6 ([2]; from ITC data, compared to P6): -0.66 kcal/mol
CC(=O)N[C@@H](CCC(N)=O)C(=O)N[C@@H](CC1CCCCC1)C(=O)N[C@@H](CC(=O)O)C(=O)N[C@@H](CC(C)C)C(=O)N[C@@H](Cc1ccc(Br)cc1)C(=O)O [Peptide P13, Ac-Gln-Cha-Asp-Leu-pBrPhe-OH] (Ac-Q[Cha]DL[Phe(4-Br)]-OH) | 0.096 | 13.49 10^6 M^−1 | -9.71 | 0.85 and 0.83 | ΔΔG (Kcal/mol) = ΔGj − ΔGi, reference i = P7 ([2]; from ITC data): -0.28 kcal/mol; ΔΔG (Kcal/mol) = ΔGj − ΔGi, reference i = P11 ([2]; from ITC data): -0.53 kcal/mol
Ac-RQLVLF [Peptide P15, Ac-RQLVLF] | – | – | – | – | IC50 [3]: 1910 nM
CC(=O)N[C@@H](CCCNC(=N)N)C(=O)N[C@@H](CCC(N)=O)C(=O)N[C@@H](CC1CCCCC1)C(=O)N[C@@H](CCCCN)C(=O)N[C@@H](CC(C)C)C(=O)N[C@@H](Cc1ccccc1)C(=O)O [Peptide P14-8, Ac R Q Cha K L F] (Ac-RQ[Cha]KLF-OH; C-terminus assumed) | – | – | – | – | Ki [1]: 904 nM; affinity for the target ([1]; SPR): 1 µM; fold decrease in affinity compared to P14 ([1]; SPR): 10 fold
CC(=O)N[C@@H](CCCNC(=N)N)C(=O)N[C@@H](CCC(N)=O)C(=O)N[C@@H](CC1CCCCC1)C(=O)N[C@@H](CCCNC(=N)N)C(=O)N[C@@H](CC(C)C)C(=O)N[C@@H](Cc1ccccc1)C(=O)O [Peptide P14-7, Ac R Q Cha R L F] (Ac-RQ[Cha]RLF-OH; N-terminus and C-terminus assumed) | – | – | – | – | affinity ratio compared to P7 ([1]; SPR): at least 50
CC(=O)N[C@@H](CCC(N)=O)C(=O)N[C@@H](CC1CCCCC1)C(=O)N[C@@H](CC(=O)O)C(=O)N[C@@H](CC(C)C)C(=O)N[C@@H](Cc1c[nH]c2ccccc12)C(=O)O [Peptide P21, Ac-Q Cha DLW] (Ac-Q[Cha]DLW-OH; C-terminus assumed) | 0.64 | – | – | – | –
H-RQLVLF-OH [Peptide P3, H-Arg-Gln-Leu-Val-Leu-Phe-OH] | 8.62 | 0.15 10^6 M^−1 | -7.04 | 1.54 and 1.45 | ΔS (cal/mol/deg) ([2]; 25° C): 6.05 cal/mol/deg and 6.6 cal/mol/deg; Kd [2, 6]: 2820 nM and 2320 nM
CC(=O)N[C@@H](CCC(N)=O)C(=O)N[C@@H](CCC1CCCCC1)C(=O)N[C@@H](CC(=O)O)C(=O)N[C@@H](CC(C)C)C(=O)N[C@@H](Cc1ccccc1)C(=O)O [Peptide P8, Ac-Gln-hCha-Asp-Leu-Phe-OH] (Ac-Q[hCha]DLF-OH) | 82.8 | 16.4 10^6 M^−1 | -5.74 | – | –
CC(=O)N[C@@H](CCC(N)=O)C(=O)N[C@@H](CCC(C)C)C(=O)N[C@@H](CC(=O)O)C(=O)N[C@@H](CC(C)C)C(=O)N[C@@H](Cc1ccccc1)C(=O)O [Peptide P9, Ac-Gln-Hol-Asp-Leu-Phe-OH] | 0.74 | 1.84 10^6 M^−1 | -8.54 | – | –
H-RQLVFL-OH [Peptide P4, H-Arg-Gln-Leu-Val-Phe-Leu-OH] | 256 | – | – | – | –
CC(=O)N[C@@H](CCC(N)=O)C(=O)N[C@@H](CC(C)C)C(=O)N[C@@H](CC(=O)O)C(=O)N[C@@H](CC(C)C)C(=O)N[C@@H](Cc1ccccc1)C(=O)O [Peptide P6, Ac-Gln-Leu-Asp-Leu-Phe-OH] | – | – | -8.22 | 1.11 and 1.14 | –
CC(=O)N[C@@H](CCC(N)=O)C(=O)N[C@@H](CC1CCCCC1)C(=O)N[C@@H](CC(=O)O)C(=O)N[C@@H](CC(C)C)C(=O)N[C@@H](CC1CCCCC1)C(=O)O [Peptide P20, Ac-Q Cha DL Cha] (Ac-Q[Cha]DL[Cha]-OH; C-terminus assumed) | 0.41 | – | – | – | –
CC(=O)N[C@@H](CCC(N)=O)C(=O)N[C@@H](CC(C)(C)C)C(=O)N[C@@H](CC(=O)O)C(=O)N[C@@H](CC(C)C)C(=O)N[C@@H](Cc1ccccc1)C(=O)O [Peptide P10, Ac-Gln-NptGly-Asp-Leu-Phe-OH] (Ac-Q[tBuAla]DLF-OH) | 0.99 | 1.36 10^6 M^−1 | -8.36 | – | –
CC(=O)N[C@@H](CCC(N)=O)C(=O)N[C@@H](CC1CCCCC1)C(=O)N[C@@H](CC(=O)O)C(=O)N[C@@H](CC(C)C)C(=O)N[C@@H](Cc1ccc(Cl)cc1)C(=O)O [Peptide P12, Ac-Gln-Cha-Asp-Leu-pClPhe-OH] (Ac-Q[Cha]DL[Phe(4-Cl)]-OH) | 0.16 | 13.7 10^6 M^−1 | -9.73 | 1.02 and 1.06 | ΔΔG (Kcal/mol) = ΔGj − ΔGi, reference i = P7 ([2]; from ITC data): -0.6 kcal/mol; ΔΔG (Kcal/mol) = ΔGj − ΔGi, reference i = P11 ([2]; from ITC data): -0.85 kcal/mol; ΔΔG (Kcal/mol) = ΔGj − ΔGi, reference i = P13 ([2]; from ITC data): -0.32 kcal/mol
CC(C)C[C@H](NC(=O)[C@H](CC(=O)O)NC(=O)[C@H](CC(C)C)NC(=O)[C@@H](N)CCC(N)=O)C(=O)N[C@@H](Cc1ccccc1)C(=O)O [Peptide P5, H-Gln-Leu-Asp-Leu-Phe-OH] | – | – | -6.87 | – | –
